Measured values as given in patent US20090131431A1, “Pyrazolo[3,4-b]pyridine compounds, and their use as a PDE4 inhibitors” (priority 2005, published 2009).
Where a name gives a salt, the structure may show the parent alone.

Columns and labels:
[1] = system: atopic dermatitis patients; conditions: cited from earlier work
[2] = system: COPD patients; conditions: cited from earlier work
[3] = target: T1, PDE4B (human recombinant) (Homo sapiens, UniProt Q07343); assay: Inhibition of PDE4B activity: SPA and/or Fluorescence Polarisation (FP) assay; type: biochemical; conditions: one reading (n=1) or average of 2 or more readings, read-out: PDE4B pIC50 (±about 0.5) (converted)
T1 construct: made in house
How it was run: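 Human recombinant PDE4B activity measured by SPA with [3H]cAMP at about 10 nM, 1 h at ambient temperature, enzyme set for ≤20% substrate hydrolysis, or by IMAP FP with Fl-cAMP at about 40 nM, 40 min at ambient temperature under linear conditions. Inhibition curves fitted; values reported as pIC50.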

[4] = system: humans with histories of allergic rhinitis; conditions: orally 500 ug once daily for 9 days; intranasal allergen provocation (pollen extracts); cited from earlier work

T1 sequence (Q07343 1-564 isoform Q07343-2): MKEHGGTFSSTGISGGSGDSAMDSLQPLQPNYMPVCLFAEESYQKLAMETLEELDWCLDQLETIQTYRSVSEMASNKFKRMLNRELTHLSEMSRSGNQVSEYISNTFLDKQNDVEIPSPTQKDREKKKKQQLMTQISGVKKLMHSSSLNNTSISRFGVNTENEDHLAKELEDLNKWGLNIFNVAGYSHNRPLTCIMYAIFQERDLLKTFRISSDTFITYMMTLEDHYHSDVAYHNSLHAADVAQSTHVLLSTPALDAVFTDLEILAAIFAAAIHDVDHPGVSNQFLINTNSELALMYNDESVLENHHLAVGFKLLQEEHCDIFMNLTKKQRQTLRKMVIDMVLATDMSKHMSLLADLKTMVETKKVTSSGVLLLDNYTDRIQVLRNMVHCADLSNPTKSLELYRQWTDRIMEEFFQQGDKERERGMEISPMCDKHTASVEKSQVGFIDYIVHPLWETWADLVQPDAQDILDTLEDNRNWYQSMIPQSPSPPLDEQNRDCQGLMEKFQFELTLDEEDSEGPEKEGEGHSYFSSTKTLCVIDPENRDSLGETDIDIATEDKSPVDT

| SMILES | IC50 [3] [nM] | other results |
| --- | --- | --- |
| Nc1nc2c([nH]1)c(=O)n(CC1CC1)c(=O)n2CC1CC1 [cipamfylline] |  | effectiveness in the treatment of atopic dermatitis patients ([1]; 0.15% cream, vs vehicle and hydrocortisone 17-butyrate (0.1%) cream): significantly more effective than vehicle, but significantly less effective than hydrocortisone 17-butyrate (0.1%) cream |
| COc1ccc([C@]2(C#N)CC[C@@H](C(=O)O)CC2)cc1OC1CCCC1 [cilomilast] |  | forced expiratory volume in 1s (FEV1) in COPD patients ([2]; 15 mg orally twice daily): appears to improve forced expiratory volume in 1s (FEV1); antiinflammatory effects in COPD patients ([2]; human, in vivo): appears to have antiinflammatory effects |
| COc1ccc(C2CNC(=O)NC2)cc1O[C@H]1C[C@@H]2CC[C@H]1C2 [CP80,633] |  | inflammatory parameters in atopic dermatitis patients ([1]; 0.5% ointment, twice daily topical application): reductions of inflammatory parameters |
| CCc1nc2c(cnn2CC)c(NC2CCOCC2)c1CNC(=O)c1csc(C)n1 [Example 309, N-{[1,6-diethyl-4-(tetrahydro-2H-pyran-4-ylamino)-1H-pyrazolo[3,4-b]pyridin-5-yl]methyl}-2-methyl-1,3-thiazole-4-carboxamide] | 0.126 to 1 |  |
| CCc1nc2c(cnn2CC)c(NC2CCOCC2)c1CNC(=O)c1ccc(N2CCCC2=O)cc1 [Example 178, N-{[1,6-diethyl-4-(tetrahydro-2H-pyran-4-ylamino)-1H-pyrazolo[3,4-b]pyridin-5-yl]methyl}-4-(2-oxo-1-pyrrolidinyl)benzamide] | 0.01 to 0.1 |  |
| CCn1ncc2c(NC3CCN(C(N)=O)CC3)c(CNC(=O)c3ccc(N4CCOCC4)cc3)c(C)nc21 [Example 303, 4-({1-ethyl-6-methyl-5-[({[4-(4-morpholinyl)phenyl]-carbonyl}amino)methyl]-1H-pyrazolo[3,4-b]pyridin-4-yl}amino)-1-piperidine-carboxamide, Formate Salt] | 0.01 to 0.1 |  |
| CCc1nc2c(cnn2CC)c(NC2CCN(C(N)=O)CC2)c1CNC(=O)c1ccccc1O [Example 211, 4-{[1,6-diethyl-5-({[(2-hydroxyphenyl)carbonyl]amino}methyl)-1H-pyrazolo[3,4-b]pyridin-4-yl]amino}-1-piperidinecarboxamide] | 0.01 to 0.1 |  |
| O=C(Nc1c(Cl)cncc1Cl)c1ccc(OC(F)F)c(OCC2CC2)c1 [roflumilast] |  | FEV1 in COPD patients ([2]; human, in vivo): appears to show small improvements in FEV1; rhinal airflow during the treatment period (compared to placebo) [4]: effective in improving rhinal airflow |
| CCn1ncc2c(NC3CCN(C(N)=O)CC3)c(CNC(=O)c3ccc4c(c3)CCC4)c(C)nc21 [Example 271, 4-[(5-{[(2,3-dihydro-1H-inden-5-ylcarbonyl)amino]methyl}-1-ethyl-6-methyl-1H-pyrazolo[3,4-b]pyridin-4-yl)amino]-1-piperidinecarboxamide] | 0.01 to 0.1 |  |

Now from value to compound, other results behind:

| IC50 [3] [nM] | SMILES | other results |
| --- | --- | --- |
| 0.126 to 1 | CCn1ncc2c(NC3CCOCC3)c(CNC(=O)c3ccc(NC(C)=O)cc3)c(C)nc21 [Example 93, 4-(acetylamino)-N-{[1-ethyl-6-methyl-4-(tetrahydro-2H-pyran-4-ylamino)-1H-pyrazolo[3,4-b]pyridin-5-yl]methyl}benzamide] |  |
| 0.126 to 1 | CCn1ncc2c(NC3CCOCC3)c(CNC(=O)c3ccc4c(=O)[nH][nH]c4c3)c(C)nc21 [Example 286, N-{[1-ethyl-6-methyl-4-(tetrahydro-2H-pyran-4-ylamino)-1H-pyrazolo[3,4-b]pyridin-5-yl]methyl}-3-oxo-2,3-dihydro-1H-indazole-6-carboxamide] |  |
| 0.126 to 1 | CCn1ncc2c(NC3CCOCC3)c(CNC(=O)c3cccnc3)c(C)nc21 [Example 125, N-{[1-ethyl-6-methyl-4-(tetrahydro-2H-pyran-4-ylamino)-1H-pyrazolo[3,4-b]pyridin-5-yl]methyl}-3-pyridinecarboxamide] |  |
| 0.01 to 0.1 | CCc1nc2c(cnn2CC)c(NC2CCOCC2)c1CNC(=O)c1cc(C)on1 [Example 233, N-{[1,6-diethyl-4-(tetrahydro-2H-pyran-4-ylamino)-1H-pyrazolo[3,4-b]pyridin-5-yl]methyl}-5-methyl-3-isoxazolecarboxamide] |  |
| 0.01 to 0.1 | CCc1nc2c(cnn2CC)c(NC2CCOCC2)c1CNC(=O)c1ccc(C(C)C)cc1 [Example 193, N-{[1,6-diethyl-4-(tetrahydro-2H-pyran-4-ylamino)-1H-pyrazolo[3,4-b]pyridin-5-yl]methyl}-4-(1-methylethyl)benzamide] |  |
| 0.126 to 1 | CCc1nc2c(cnn2CC)c(NC2CCOCC2)c1CNC(=O)c1cncnc1 [Example 151, N-{[1,6-diethyl-4-(tetrahydro-2H-pyran-4-ylamino)-1H-pyrazolo[3,4-b]pyridin-5-yl]methyl}-5-pyrimidinecarboxamide] |  |
